Earlier results, collected in US7166468B2, “Production of the lantibiotic cinnamycin with genes isolated from Streptomyces cinnamoneus” (Plant Bioscience Limited, priority 2001, dated 2007).
Ends that are not written are not given here.

Test system: B. subtilis
Conditions: stated as known activity

cinnamycin (CRQSCSFGPFTFVCDGNTK; thioether (positions not given here); not fully specified (bridges); also: lanthionine bridges, positions not given here)
Known activity of cinnamycin: inhibition of the growth of B. subtilis strains: inhibition of the growth of the B. subtilis strains
